± gives the standard deviation of the averaged measurements.
System: SK-ES-1
Experiment: relative viability vs DMSO control (72 h) (fraction); higher = more viable cells
Method in brief: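 Relative viability is percent growth read by ATPLite and averaged over up to triplicate wells. Sarcoma cells were seeded in 384-well plates to reach 80–90% confluence and given 2.5 µl of serially diluted compound after 24 h, from source plates of 10 mM to 0.0002 mM. Incubation lasted 72 h at 37 °C, 5% CO2, with 0.1% DMSO vehicle and a 5 µM positive control, and the data were rescaled so 1 equals full and 0 equals none.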

SMILES	relative viability (0.00017 µM)	relative viability (0.00051 µM)	relative viability (0.00152 µM)	relative viability (0.00457 µM)	relative viability (0.01372 µM)	relative viability (0.04115 µM)	relative viability (0.1235 µM)	relative viability (0.3704 µM)	relative viability (1.111 µM)	relative viability (3.333 µM)	relative viability (10 µM)
CNC(=O)c1ccc(-c2cnc3ncc(Cc4ccc5ncccc5c4)n3n2)cc1F [Capmatinib]	1.06 ± 0.011	1.05 ± 0.022	1.11 ± 0.023	1.08 ± 0.04	1.06 ± 0.021	1.09 ± 0.015	1.09 ± 0.048	1.08 ± 0.049	1.12 ± 0.03	1.08 ± 0.026	1.07 ± 0.026
CCN1CCN(Cc2ccc(Nc3ncc(F)c(-c4cc(F)c5nc(C)n(C(C)C)c5c4)n3)nc2)CC1 [Abemaciclib]	1.03 ± 0.032	1.04 ± 0.027	0.995 ± 0.031	1 ± 0.052	0.922 ± 0.055	0.728 ± 0.018	0.481 ± 0.035	0.413 ± 0.012	0.38 ± 0.0066	0.346 ± 0.01	0.00807 ± 0.00042
C=CC(=O)N1CCC[C@@H](n2nc(-c3ccc(Oc4ccccc4)cc3)c3c(N)ncnc32)C1 [Ibrutinib]	1.008 ± 0.0073	1.02 ± 0.054	1.02 ± 0.026	1.02 ± 0.054	1 ± 0.085	1.04 ± 0.03	1 ± 0.011	1.06 ± 0.036	1.057 ± 0.0088	1.02 ± 0.021	0.743 ± 0.043
Cn1cnc2c(F)c(Nc3ccc(Br)cc3F)c(C(=O)NOCCO)cc21 [Binimetinib]	1.03 ± 0.019	1.02 ± 0.018	0.988 ± 0.021	0.984 ± 0.058	0.95 ± 0.028	0.957 ± 0.045	0.983 ± 0.036	0.923 ± 0.015	0.945 ± 0.05	0.893 ± 0.027	0.861 ± 0.077
CC1(C)CNc2cc(NC(=O)c3cccnc3NCc3ccncc3)ccc21 [Motesanib]	0.942 ± 0.053	0.899 ± 0.059	0.952 ± 0.013	0.891 ± 0.017	0.9075 ± 0.0058	0.938 ± 0.056	0.974 ± 0.051	0.913 ± 0.043	0.954 ± 0.044	0.924 ± 0.053	0.753 ± 0.038
C[C@@H](c1ccc2nccn2c1)n1nnc2ncc(-c3cnn(C)c3)nc21 [Volitinib]	1.02 ± 0.025	1.01 ± 0.06	1.05 ± 0.031	1.07 ± 0.021	1.05 ± 0.047	1.04 ± 0.033	1.04 ± 0.051	1.03 ± 0.036	1.05 ± 0.1	1.05 ± 0.058	1.01 ± 0.083
Cc1ccc(NC(=O)c2ccc(CN3CCN(C)CC3)cc2)cc1Nc1nc(-c2cccnc2)cs1 [Masitinib]	1 ± 0.018	0.9842 ± 0.008	0.999 ± 0.032	1.06 ± 0.013	0.981 ± 0.033	1.01 ± 0.017	1 ± 0.042	0.93 ± 0.05	0.817 ± 0.039	0.5209 ± 0.0016	0.138 ± 0.012
C=CC(=O)Nc1cccc(Oc2nc(Nc3ccc(N4CCN(C)CC4)cc3)nc3ccsc23)c1 [Olmutinib]	0.979 ± 0.049	1.029 ± 0.0089	0.999 ± 0.047	1.03 ± 0.028	1.03 ± 0.036	1.018 ± 0.0064	1.05 ± 0.022	1.05 ± 0.051	0.996 ± 0.059	0.921 ± 0.011	0.339 ± 0.041
CC(C)(C)c1cc(NC(=O)Nc2ccc(-c3cn4c(n3)sc3cc(OCCN5CCOCC5)ccc34)cc2)no1 [Quizartinib]	0.995 ± 0.028	1.05 ± 0.05	1.08 ± 0.014	1.1 ± 0.036	1.08 ± 0.037	1.04 ± 0.011	1.08 ± 0.035	1.1 ± 0.069	0.904 ± 0.033	0.674 ± 0.049	0.594 ± 0.056
CC(C)NC(=O)C1CCC(n2c(NC(=O)c3ccc(F)cc3)nc3ccc(CN4CCC(C(C)(C)O)CC4)cc32)CC1 (stereo not given) [Belizatinib]	1.03 ± 0.038	1.02 ± 0.041	1.06 ± 0.031	1.05 ± 0.029	1.05 ± 0.039	1.08 ± 0.032	0.943 ± 0.065	0.633 ± 0.031	0.311 ± 0.013	0.208 ± 0.01	0.0946 ± 0.0023
Cc1ccc(F)c(NC(=O)Nc2ccc(-c3cccc4[nH]nc(N)c34)cc2)c1 [Linifanib]	1.07 ± 0.098	1.07 ± 0.044	1.08 ± 0.043	1.11 ± 0.025	1.09 ± 0.052	1.04 ± 0.028	1.04 ± 0.038	1.05 ± 0.039	1.01 ± 0.032	0.879 ± 0.17	1.03 ± 0.034
Cc1nc(NC(=O)N2CCC[C@H]2C(N)=O)sc1-c1ccnc(C(C)(C)C(F)(F)F)c1 [Alpelisib]	1.02 ± 0.032	1 ± 0.047	1.01 ± 0.039	1.01 ± 0.054	0.995 ± 0.057	0.931 ± 0.033	0.888 ± 0.052	0.675 ± 0.057	0.558 ± 0.0047	0.425 ± 0.024	0.289 ± 0.02
C[C@]1(O)C[C@@H](c2nc(-c3ccc4ccc(-c5ccccc5)nc4c3)c3c(N)nccn32)C1 [Linsitinib]	1.05 ± 0.039	1.05 ± 0.034	1.08 ± 0.019	1.07 ± 0.051	1.03 ± 0.067	0.967 ± 0.038	0.75 ± 0.026	0.479 ± 0.042	0.341 ± 0.013	0.308 ± 0.013	0.21 ± 0.0051
C=CC(=O)N1CCC([C@@H]2CCNc3c(C(N)=O)c(-c4ccc(Oc5ccccc5)cc4)nn32)CC1 [Zanubrutinib]	0.906 ± 0.065	0.938 ± 0.088	0.994 ± 0.05	0.984 ± 0.083	0.949 ± 0.043	0.953 ± 0.029	0.934 ± 0.041	0.953 ± 0.057	0.894 ± 0.069	0.903 ± 0.031	0.845 ± 0.038
CCc1cc2c(cc1N1CCC(N3CCOCC3)CC1)C(C)(C)c1[nH]c3cc(C#N)ccc3c1C2=O [Alectinib]	1 ± 0.048	1.04 ± 0.023	1.07 ± 0.025	1.07 ± 0.025	1.02 ± 0.031	1.03 ± 0.02	1.06 ± 0.084	1.01 ± 0.068	1.08 ± 0.056	1.04 ± 0.035	0.915 ± 0.068

From the supplement of paper PMC10883282
